The values that follow are results of earlier work, collected in patent publication US20250235471A1, “OIL-IN-WATER EMULSION FOR INHALATION ADMINISTRATION COMPRISING CANNABIDIOL(CBD)” (Incannex Healthcare Limited, priority 2021, published 2025).

SMILES strings stand for the structures. Where only a bound is given, the exact number is not on record here.

As to `C=C(C)[C@@H]1CCC(C)=C[C@H]1c1c(O)cc(CCCCC)cc1O` [CBD, cannabidiol], the aqueous solubility was below 10 µg/mL. The “estimated oil/water partition coefficient (Log P)” value (estimated) is 6-7.
